Results reported in ChEMBL document CHEMBL3046389, “Synthesis and biological evaluation of novel hydroquinone dimethyl ethers as potential anticancer and antimicrobial agents” (2013).
In brackets after ≈: the same amount, converted by molar mass.

Columns and labels:
Format in all cases: functional
HL-60(TB) [1] = test: Growth inhibition of Homo sapiens (human) HL-60(TB) cells at 10 uM after 48 hr by SRB assay; conditions: HL-60, 48 h, read-out: GI
NCI-H460 = test: Growth inhibition of Homo sapiens (human) NCI-H460 cells at 10 uM after 48 hr by SRB assay; conditions: NCI-H460, 48 h, read-out: GI
HOP-92 = test: Anticancer activity against Homo sapiens (human) HOP92 cells after 48 hr by SRB assay; conditions: HOP-92, 48 h; for CC50: read-out: LC50 (the source's name)
HOP-62 = test: Anticancer activity against Homo sapiens (human) HOP62 cells after 48 hr by SRB assay; conditions: HOP-62, 48 h; for CC50: read-out: LC50 (the source's name)
NCI-H23 = test: Anticancer activity against Homo sapiens (human) NCI-H23 cells after 48 hr by SRB assay; conditions: NCI-H23, 48 h; for CC50: read-out: LC50 (the source's name)
Malme-3M = test: Anticancer activity against Homo sapiens (human) MALME-3M cells after 48 hr by SRB assay; conditions: for CC50: read-out: LC50 (the source's name)
K562 = test: Anticancer activity against Homo sapiens (human) K562 cells after 48 hr by SRB assay; conditions: K562, 48 h; for CC50: read-out: LC50 (the source's name)
Hs-578T = test: Growth inhibition of Homo sapiens (human) Hs 578T cells at 10 uM after 48 hr by SRB assay; conditions: read-out: GI
KM12 = test: Anticancer activity against Homo sapiens (human) KM12 cells after 48 hr by SRB assay; conditions: KM12, 48 h; for CC50: read-out: LC50 (the source's name)
T47D = test: Growth inhibition of Homo sapiens (human) T47D cells at 10 uM after 48 hr by SRB assay; conditions: read-out: GI
MOLT-4 = test: Growth inhibition of Homo sapiens (human) MOLT4 cells at 10 uM after 48 hr by SRB assay; conditions: MOLT-4, 48 h, read-out: GI
NCI/ADR-RES = test: Anticancer activity against Homo sapiens (human) NCI/ADR-RES cells after 48 hr by SRB assay
OVCAR-5 = test: Anticancer activity against Homo sapiens (human) OVCAR5 cells after 48 hr by SRB assay; conditions: OVCAR-5, 48 h; for CC50: read-out: LC50 (the source's name)
UACC-62 [2] = test: Anticancer activity against Homo sapiens (human) UACC62 cells after 48 hr by SRB assay; conditions: UACC-62, 48 h
IGROV-1 = test: Growth inhibition of Homo sapiens (human) IGROV1 cells at 10 uM after 48 hr by SRB assay; conditions: IGROV-1, 48 h, read-out: GI
SK-MEL-5 = test: Anticancer activity against Homo sapiens (human) SK-MEL-5 cells after 48 hr by SRB assay; conditions: SK-MEL-5, 48 h
HL-60(TB) [3] = test: Anticancer activity against Homo sapiens (human) HL-60(TB) cells after 48 hr by SRB assay; conditions: HL-60, 48 h; for CC50: read-out: LC50 (the source's name)
UACC-257 = test: Anticancer activity against Homo sapiens (human) UACC257 cells after 48 hr by SRB assay; conditions: UACC-257, 48 h
A498 = test: Anticancer activity against Homo sapiens (human) A498 cells after 48 hr by SRB assay; conditions: A498, 48 h
CAKI-1 = test: Anticancer activity against Homo sapiens (human) CAKI-1 cells after 48 hr by SRB assay; conditions: CAKI-1, 48 h; for CC50: read-out: LC50 (the source's name)
UACC-62 [4] = test: Growth inhibition of Homo sapiens (human) UACC62 cells at 10 uM after 48 hr by SRB assay; conditions: UACC-62, 48 h, read-out: GI
SNB-75 = test: Growth inhibition of Homo sapiens (human) SNB75 cells at 10 uM after 48 hr by SRB assay; conditions: SNB-75, 48 h, read-out: GI
SN12C = test: Growth inhibition of Homo sapiens (human) SN12C cells at 10 uM after 48 hr by SRB assay; conditions: read-out: GI
SK-MEL-28 = test: Anticancer activity against Homo sapiens (human) SK-MEL-28 cells after 48 hr by SRB assay; conditions: SK-MEL-28, 48 h
ACHN = test: Growth inhibition of Homo sapiens (human) ACHN cells at 10 uM after 48 hr by SRB assay; conditions: read-out: GI
UO-31 = test: Anticancer activity against Homo sapiens (human) UO31 cells after 48 hr by SRB assay; conditions: UO-31, 48 h
M14 = test: Growth inhibition of Homo sapiens (human) M14 cells at 10 uM after 48 hr by SRB assay; conditions: M14, 48 h, read-out: GI
HT-29 = test: Growth inhibition of Homo sapiens (human) HT-29 cells at 10 uM after 48 hr by SRB assay; conditions: HT-29, 48 h, read-out: GI
A549 = test: Anticancer activity against Homo sapiens (human) A549/ATCC cells after 48 hr by SRB assay; conditions: A549, 48 h; for CC50: read-out: LC50 (the source's name)
MDA-MB-468 = test: Growth inhibition of Homo sapiens (human) MDA-MB-468 cells at 10 uM after 48 hr by SRB assay; conditions: MDA-MB-468, 48 h, read-out: GI
MCF7 = test: Growth inhibition of Homo sapiens (human) MCF7 cells at 10 uM after 48 hr by SRB assay; conditions: MCF7, 48 h, read-out: GI
Pseudomonas aeruginosa = test: Antimicrobial activity against Pseudomonas aeruginosa ATCC 10145 after 48 hr by two-fold serial broth dilution method; conditions: ATCC 10145, 48 h
MDA-MB-435 = test: Anticancer activity against Homo sapiens (human) MDA-MB-435 cells after 48 hr by SRB assay; conditions: MDA-MB-435, 48 h; for CC50: read-out: LC50 (the source's name)

## COc1ccc(OC)c(/C=C/C(=O)N/N=C/c2ccccc2)c1
HL-60(TB) [1]
  inhibition of growth at 10 µM: 53.6%
NCI-H460
  inhibition of growth at 10 µM: 86.5%
HOP-92
  GI50: 1.56 µM
  TGI: 13.3 µM
  CC50: > 100 µM
HOP-62
  GI50: 4.95 µM
  TGI: > 100 µM
  CC50: > 100 µM
NCI-H23
  GI50: 5.4 µM
  TGI: 87 µM
  CC50: > 100 µM
Malme-3M
  GI50: 2.12 µM
  TGI: > 100 µM
  CC50: > 100 µM
K562
  GI50: 0.488 µM
  TGI: > 100 µM
  CC50: > 100 µM
Hs-578T
  inhibition of growth at 10 µM: 33.5%
KM12
  GI50: 0.834 µM
  TGI: 3.75 µM
  CC50: 29.4 µM
T47D
  inhibition of growth at 10 µM: 60.3%
MOLT-4
  inhibition of growth at 10 µM: 63.5%
NCI/ADR-RES
  GI50: 1.46 µM
  LC50: > 100 µM
  TGI: 4.29 µM
OVCAR-5
  GI50: 18 µM
  TGI: > 100 µM
  CC50: > 100 µM
UACC-62 [2]
  GI50: 3.55 µM
  LC50: > 100 µM
  TGI: 75.8 µM
IGROV-1
  inhibition of growth at 10 µM: 61.5%
SK-MEL-5
  GI50: 2.94 µM
  LC50: > 100 µM
  TGI: 14.6 µM
HL-60(TB) [3]
  GI50: 2.03 µM
  TGI: 13.7 µM
  CC50: > 100 µM
UACC-257
  GI50: 5.76 µM
  LC50 (50% lethal concentration): > 100 µM
  TGI: 33.6 µM
A498
  GI50: 12 µM
  LC50: > 100 µM
  TGI: > 100 µM
CAKI-1
  GI50: 0.443 µM
  TGI: 6.66 µM
  CC50: > 100 µM
UACC-62 [4]
  inhibition of growth at 10 µM: 39%
SNB-75
  inhibition of growth at 10 µM: 58.9%
SN12C
  inhibition of growth at 10 µM: 47.9%
SK-MEL-28
  GI50: 8.89 µM
  LC50 (concentration killing 50% of cells): > 100 µM
  TGI: > 100 µM
ACHN
  inhibition of growth at 10 µM: 37.2%
UO-31
  GI50: 5.9 µM
  LC50 (50% lethal concentration): > 100 µM
  TGI: 85.5 µM
M14
  inhibition of growth at 10 µM: 72.2%
HT-29
  inhibition of growth at 10 µM: 79.3%
A549
  GI50: 4.29 µM
  TGI: > 100 µM
  CC50: > 100 µM
MDA-MB-468
  inhibition of growth at 10 µM: 71.9%
MCF7
  inhibition of growth at 10 µM: 82.7%
Pseudomonas aeruginosa
  MBC: 100 µg/mL (≈ 322 µM)
  MIC: 50 µg/mL (≈ 161 µM)
MDA-MB-435
  GI50: 0.283 µM
  TGI: 1.98 µM
  CC50: > 100 µM

## COc1ccc(OC)c(/C=C/C(=O)N/N=C/c2ccc(Cl)cc2)c1
HL-60(TB) [1]
  inhibition of growth at 10 µM: 79.9%
NCI-H460
  inhibition of growth at 10 µM: 94.8%
HOP-92
  GI50: 4.43 µM
  TGI: 58.9 µM
  CC50: > 100 µM
HOP-62
  GI50: 0.162 µM
  TGI: 50.2 µM
  CC50: > 100 µM
NCI-H23
  GI50: 0.148 µM
  TGI: 2.46 µM
  CC50: > 100 µM
Malme-3M
  TGI: > 100 µM
  CC50: > 100 µM
K562
  GI50: 0.0488 µM
  TGI: > 100 µM
  CC50: > 100 µM
Hs-578T
  inhibition of growth at 10 µM: 102%
KM12
  GI50: 0.0522 µM
  TGI: 8.48 µM
  CC50: > 100 µM
T47D
  inhibition of growth at 10 µM: 70.5%
MOLT-4
  inhibition of growth at 10 µM: 73.7%
NCI/ADR-RES
  GI50: 0.0391 µM
  LC50: 90.6 µM
  TGI: 0.233 µM
OVCAR-5
  GI50: 10.9 µM
  TGI: > 100 µM
  CC50: > 100 µM
UACC-62 [2]
  GI50: 0.068 µM
  LC50: > 100 µM
  TGI: > 100 µM
IGROV-1
  inhibition of growth at 10 µM: 82.1%
SK-MEL-5
  GI50: 0.0581 µM
  LC50: > 100 µM
HL-60(TB) [3]
  GI50: 0.0785 µM
  TGI: 0.483 µM
  CC50: > 100 µM
UACC-257
  GI50: 36.5 µM
  LC50 (50% lethal concentration): > 100 µM
  TGI: > 100 µM
A498
  GI50: 0.182 µM
  LC50: > 100 µM
  TGI: 27.5 µM
CAKI-1
  GI50: 0.0879 µM
  TGI: > 100 µM
  CC50: > 100 µM
UACC-62 [4]
  inhibition of growth at 10 µM: 57.9%
SNB-75
  inhibition of growth at 10 µM: 56%
SN12C
  inhibition of growth at 10 µM: 53.8%
SK-MEL-28
  GI50: 0.372 µM
  LC50 (concentration killing 50% of cells): > 100 µM
  TGI: > 100 µM
ACHN
  inhibition of growth at 10 µM: 51.6%
UO-31
  GI50: 3.37 µM
  LC50 (50% lethal concentration): > 100 µM
  TGI: > 100 µM
M14
  inhibition of growth at 10 µM: 134%
HT-29
  inhibition of growth at 10 µM: 93.5%
A549
  GI50: 0.242 µM
  TGI: > 100 µM
  CC50: > 100 µM
MDA-MB-468
  inhibition of growth at 10 µM: 104%
MCF7
  inhibition of growth at 10 µM: 91.1%
Pseudomonas aeruginosa
  MBC: 50 µg/mL (≈ 145 µM)
  MIC: 50 µg/mL (≈ 145 µM)
MDA-MB-435
  GI50: 0.0311 µM
  TGI: 0.0988 µM
  CC50: > 100 µM
